Experiments:
[1] = test system: KARPAS-422; assay: Cell proliferation assay (6 days, CellTiter-Glo); assay type: cell-based, human
Source text: (§1) Thus, Example 22 and Table 6 better reflect the inhibition of HZH2 inhibitors on cell lines, e.g. the lymphoma cell lines. DLBCL cell lines were the most sensitive to EZH2 inhibition (FIG. 11a). […] Evaluation of GSK126 in additional lymphoma cell lines and extensive genomic and epigenomic characterization will be required to fully elucidate the determinants of sensitivity among lymphoma subtypes.
(§2) Biochemical assays utilized the 5-member PRC2 complex (human Flag-EZH2, EED, SUZ12, AEBP2, RbAp48) containing either WT or mutant EZH2, [^3H-]SAM and the indicated peptide substrate; reactions were incubated for 30 minutes. Global histone modification levels were determined by ELISA or western blot methods using antibodies specific for total histone H3, H3K27me1, H3K27me2, or H3K27me3. Cell proliferation and Caspase-3/7 activity were assessed using CellTiter-Glo and Caspase-Glo 3/7 (Promega), respectively. Gene expression profiling was conducted using Affymetrix Human Genome U133 Plus 2.0 microarrays. Differentially-expressed probe sets were determined by fitting the data to a linear model using the limma statistical package (http://www.bioconductor.org) and carrying out pair-wise contrasts of treated versus control. Significant probe sets were filtered for detection (log2 signal threshold of 8), an average fold-change >2 or <−2, or >1.5 or <−1.5, where indicated, with p-values adjusted for multiple testing correction by FDR (Benjamini Hochberg)<0.1. H3K27me3 ChIP reads were aligned using Bowtie (56). H3K27me3 enrichment peaks were identified using SICER (57) with optimized parameters. A custom PERL script was utilized to quantify the average basal H3K27me3 ChIP-seq tag density across gene sets. All in vivo studies were conducted after review by the Institutional Animal Care and Use Committee at GSK and in accordance with the GSK Policy on the Care, Welfare and Treatment of Laboratory Animals. GSK126 and vehicle were administered to mice intraperitoneally. Two-tailed t-tests were conducted assuming two samples of equal variance.
(§3) The optimal cell seeding was determined empirically for all cell lines by examining the growth of a wide range of seeding densities in a 384-well format to identify conditions that permitted proliferation for 6 days. […] Plates were incubated for 6 days at 37° C. in 5% CO2. Cells were then lysed with CellTiter-Glo (Promega) and chemiluminescent signal was detected with a TECAN Safire2 microplate reader. In addition, an untreated plate of cells was harvested at the time of compound addition (T0) to quantify the starting number of cells. CTG values obtained after the 6 day treatment were expressed as a percent of the T0 value and plotted against compound concentration.

[2] = test system: Pfeiffer; assay: Cell proliferation assay (6 days, CellTiter-Glo); assay type: cell-based, human
Source text: as §1, §2, §3

[3] = test system: H3K27me3/2/1, histone H3, EZH2, SUZ12, EED in lymphoma cell lines; assay: Western blot of H3K27 methylation status and PRC2 components following GSK126 treatment; assay type: cell-based, human
Protocol: Cell lines were obtained from the American Type Culture Collection or the Deutsche Sammlung von Mikroorganismen und Zellbulturen and maintained in the recommended cell culture media at 37° C. in 5% CO2. Cells were lysed with radioimmunoprecipitation (RIPA) buffer (ThermoScientific) and western blot analysis was conducted as previously described (41). Antibodies were obtained as previously described (41) or from Cell Signaling Technology (SUZ12, 3737), or Santa Cruz Biotechnology (EED, sc-28701).
Cells (2×10^5/well) were seeded into six-well tissue culture plates in the appropriate cell culture media 24 hours before treatment.

[4] = test system: H3K27me3 in DLBCL cell lines; assay: ELISA-based quantitation of H3K27me3 in treated cells; conditions: Homo sapiens, EZH2 WT and mutant DLBCL cell lines, 48 hours
Protocol: Biochemical assays utilized the 5-member PRC2 complex (human Flag-EZH2, EED, SUZ12, AEBP2, RbAp48) containing either WT or mutant EZH2, [^3H-]SAM and the indicated peptide substrate; reactions were incubated for 30 minutes. Global histone modification levels were determined by ELISA or western blot methods using antibodies specific for total histone H3, H3K27me1, H3K27me2, or H3K27me3. Cell proliferation and Caspase-3/7 activity were assessed using CellTiter-Glo and Caspase-Glo 3/7 (Promega), respectively. Gene expression profiling was conducted using Affymetrix Human Genome U133 Plus 2.0 microarrays. Differentially-expressed probe sets were determined by fitting the data to a linear model using the limma statistical package (http://www.bioconductor.org) and carrying out pair-wise contrasts of treated versus control. […] H3K27me3 ChIP reads were aligned using Bowtie (56). […] A custom PERL script was utilized to quantify the average basal H3K27me3 ChIP-seq tag density across gene sets. […]
Following tissue homogenization, tumor tissue lysates were prepared using the Epigentek Histone Extraction kit (OP-0006). […] Luminata Forte substrate (Millipore) was added 5 minutes before chemiluminescence was quantified with an EnVision multi-label plate reader (PerkinElmer). H3K27me3 levels were normalized to total H3 values and IC50 values were determined using a 4-parameter curve fit.

[5] = target: EZH1 (Homo sapiens, UniProt Q92800); assay: Inhibition of EZH1 methyltransferase activity; assay type: biochemical; conditions: read-out: Ki app
[6] = test system: KARPAS-422; assay: Cell cycle analysis by flow cytometry; assay type: cell-based, human; conditions: 500 nM GSK126, 72 hours
Protocol: Cell cycle phase distribution was examined by flow cytometry. […] Cells were washed with PBS, pelleted in BD buffer solution, flash frozen, and stored at −80° C. CycleTest™ PLUS DNA reagent kit (Becton Dickinson, 340242) was used according to the manufacturer's instructions to prepare and stain nuclei with propidium iodide. Samples were evaluated using a FACSCalibur flow cytometer (Becton Dickinson) and data were analyzed using FlowJo software (Tree Star).

[7] = test system: H3K27me3 and EZH2 target genes in tumor xenografts; assay: Pharmacodynamic study in tumor xenografts (H3K27me3/H3 ELISA, qRT-PCR); assay type: in vivo, mice; conditions: 10 days of once-daily (QD) dosing; dose-dependent
Protocol: Following tissue homogenization, tumor tissue lysates were prepared using the Epigentek Histone Extraction kit (OP-0006). […] Cells were lysed with 0.2N HCl for 30 minutes to extract histones, the acid-insoluble portion was pelleted by centrifugation, and the supernatant was neutralized with neutralization buffer (1M Na2HPO4, pH 12.5; ActiveMotif) containing protease inhibitors (Roche). Lysates were added to Maxisorp ELISA plates (Nunc) in duplicate on each of two plates plus blocking buffer (1% BSA). […] Luminata Forte substrate (Millipore) was added 5 minutes before chemiluminescence was quantified with an EnVision multi-label plate reader (PerkinElmer). H3K27me3 levels were normalized to total H3 values and IC50 values were determined using a 4-parameter curve fit. […]
All studies were conducted after review by the Institutional Animal Care and Use Committee at GSK and in accordance with the GSK Policy on the Care, Welfare and Treatment of Laboratory Animals. […] Tumors were measured with calipers, block randomized according to tumor size into treatment groups. […] Mice were weighed and tumors measured with calipers twice weekly. […]

Sequence of EZH1 (Q92800 whole entry): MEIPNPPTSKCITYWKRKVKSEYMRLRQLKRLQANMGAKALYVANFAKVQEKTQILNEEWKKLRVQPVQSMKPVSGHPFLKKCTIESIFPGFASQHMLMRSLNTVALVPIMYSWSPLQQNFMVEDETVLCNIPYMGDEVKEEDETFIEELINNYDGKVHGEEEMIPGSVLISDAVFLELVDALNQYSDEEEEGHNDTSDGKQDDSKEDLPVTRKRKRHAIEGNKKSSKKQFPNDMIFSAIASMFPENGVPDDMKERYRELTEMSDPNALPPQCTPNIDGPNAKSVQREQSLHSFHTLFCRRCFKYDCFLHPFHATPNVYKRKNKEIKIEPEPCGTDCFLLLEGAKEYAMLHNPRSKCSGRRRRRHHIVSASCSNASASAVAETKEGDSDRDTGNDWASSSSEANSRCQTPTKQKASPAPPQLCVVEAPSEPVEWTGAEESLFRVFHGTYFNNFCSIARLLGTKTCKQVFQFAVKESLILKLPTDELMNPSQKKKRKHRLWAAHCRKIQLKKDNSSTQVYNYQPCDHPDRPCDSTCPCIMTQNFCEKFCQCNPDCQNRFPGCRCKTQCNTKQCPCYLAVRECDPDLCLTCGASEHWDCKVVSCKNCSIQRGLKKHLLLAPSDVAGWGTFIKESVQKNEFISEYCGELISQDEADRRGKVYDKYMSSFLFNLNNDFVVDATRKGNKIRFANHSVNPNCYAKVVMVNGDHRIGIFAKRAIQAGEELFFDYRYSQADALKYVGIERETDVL
Sequence of EZH1 (O75530 whole entry partner): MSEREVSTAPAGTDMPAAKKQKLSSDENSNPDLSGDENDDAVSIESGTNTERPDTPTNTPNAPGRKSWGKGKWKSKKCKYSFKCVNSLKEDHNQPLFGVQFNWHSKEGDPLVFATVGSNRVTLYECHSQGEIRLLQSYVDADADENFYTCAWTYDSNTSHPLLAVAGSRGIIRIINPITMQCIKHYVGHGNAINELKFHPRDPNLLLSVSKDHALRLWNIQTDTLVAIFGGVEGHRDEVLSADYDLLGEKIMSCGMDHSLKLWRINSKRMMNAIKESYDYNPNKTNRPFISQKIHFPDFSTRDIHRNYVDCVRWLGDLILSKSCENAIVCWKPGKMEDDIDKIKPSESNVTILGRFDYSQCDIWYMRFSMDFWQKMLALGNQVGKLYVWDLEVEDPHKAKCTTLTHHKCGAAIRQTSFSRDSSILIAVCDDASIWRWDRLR
Sequence of EZH1 (Q15022 whole entry partner): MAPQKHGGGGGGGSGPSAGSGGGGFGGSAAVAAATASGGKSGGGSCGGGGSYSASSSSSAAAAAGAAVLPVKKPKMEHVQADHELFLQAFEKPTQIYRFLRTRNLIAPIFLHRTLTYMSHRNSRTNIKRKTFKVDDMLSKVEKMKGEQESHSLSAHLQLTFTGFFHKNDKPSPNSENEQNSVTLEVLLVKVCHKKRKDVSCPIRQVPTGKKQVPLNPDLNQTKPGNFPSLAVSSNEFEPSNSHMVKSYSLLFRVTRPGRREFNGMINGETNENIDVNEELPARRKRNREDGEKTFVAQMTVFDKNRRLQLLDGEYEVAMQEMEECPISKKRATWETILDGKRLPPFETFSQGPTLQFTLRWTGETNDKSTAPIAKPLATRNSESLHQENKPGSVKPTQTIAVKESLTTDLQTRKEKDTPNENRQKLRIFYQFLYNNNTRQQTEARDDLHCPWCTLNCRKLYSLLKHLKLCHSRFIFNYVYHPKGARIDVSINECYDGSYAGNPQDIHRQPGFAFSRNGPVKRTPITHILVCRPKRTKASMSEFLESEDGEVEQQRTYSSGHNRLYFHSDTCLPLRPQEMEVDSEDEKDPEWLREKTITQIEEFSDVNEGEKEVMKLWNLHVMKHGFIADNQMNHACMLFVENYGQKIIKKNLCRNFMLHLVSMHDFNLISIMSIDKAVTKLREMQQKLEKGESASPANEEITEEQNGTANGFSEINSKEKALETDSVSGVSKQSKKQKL

CC[C@H](C)n1cc(C)c2c(C(=O)NCc3c(C)cc(C)[nH]c3=O)cc(-c3ccc(N4CCNCC4)nc3)cc21 [GSK126]
time required for maximal potency on growth [1]: 6 to 7 days
IC50 ([1]; Homo sapiens, 144 h, 6 days, DLBCL, EZH2 Y641F (HET), read-out: AVERAGE GROWTH IC50): 232 nM
time after which net decreases in cell number were evident [2]: 3 days
time after which potent inhibition of cell proliferation was observed [2]: 2 days
IC50 ([2]; Homo sapiens, 144 h, […], 6 days, DLBCL, EZH2 A677G (HET), read-out: AVERAGE GROWTH IC50): 28 nM
Total histone H3 and PRC2 components ([3]; 25 nM-2 μM, 72 hrs): not affected
H3K27me1 level ([3]; 72 hours): only weakly reduced at the highest inhibitor concentration
IC50 [4]: 10 to 252 nM
Ki [5]: 89 nM
cells in G1 [6]: 77%
gene expression in tumor xenografts [7]: increased
global H3K27me3 in tumor xenografts [7]: decreased
